Experimental data reported in the OligoGym collection.
After the bases stand the sugars from the 5' end (letter, count) and the backbone: PS all phosphorothioate, else s phosphorothioate and o phosphodiester by linkage. Methylation of C is not given here. e = 2'-O-(2-methoxyethyl) (MOE); k = constrained ethyl (cEt); d = 2'-deoxy (DNA); m = 2'-O-methyl

Molecular target: HSD17B13
Conditions: ASO, HepaRG

## AAAAATTGGCCTCCTG (sugars k3 d10 k3, PS)
1 µM
  target mRNA inhibition: 41%

## AAAACATTGCTCTTCG (sugars k3 d10 k3, PS)
1 µM
  target mRNA inhibition: 59%

## AAAACCGTCAAATAGG (sugars k3 d10 k3, PS)
1 µM
  target mRNA inhibition: 28%

## AAAACTTCACCAACGA (sugars k3 d10 k3, PS)
1 µM
  target mRNA inhibition: 29%

## AAAATAGAGTCGGTCA (sugars kkdddddddddkekek, PS)
1 µM
  target mRNA inhibition: 53%

## AAAATCGCTGCTTAGT (sugars k3 d10 k3, PS)
1 µM
  target mRNA inhibition: 35%

## AAAATTATGCCTTGTG (sugars k3 d10 k3, PS)
1 µM
  target mRNA inhibition: 50%

## AAACAAGAGGATAGTC (sugars kkkdddddddkdkkke, PS)
1 µM
  target mRNA inhibition: 45%

## AAACATCTCTGGGACC (sugars k3 d10 k3, PS)
0.02 µM
  target mRNA inhibition: 0%
0.078 µM
  target mRNA inhibition: 0%
0.313 µM
  target mRNA inhibition: 33%
1.25 µM
  target mRNA inhibition: 56%
5 µM
  target mRNA inhibition: 78%

## AAACCTTCATGCTAGT (sugars k3 d10 k3, PS)
1 µM
  target mRNA inhibition: 27%

## AAACCTTGAATGAGTG (sugars k3 d10 k3, PS)
1 µM
  target mRNA inhibition: 37%

## AAAGCCCTATTCTTCG (sugars k3 d10 k3, PS)
1 µM
  target mRNA inhibition: 65%

## AAAGTTAGTTGGGCGA (sugars k3 d10 k3, PS)
1 µM
  target mRNA inhibition: 26%

## AAATCTTGTGTAACTG (sugars k3 d10 k3, PS)
1 µM
  target mRNA inhibition: 41%

## AAATTATTGCCTGAAC (sugars k3 d10 k3, PS)
1 µM
  target mRNA inhibition: 32%

## AAATTCATAAGTAGTC (sugars k3 d10 k3, PS)
1 µM
  target mRNA inhibition: 39%

## AAATTGGCCTCCTGGG (sugars k3 d10 k3, PS)
1 µM
  target mRNA inhibition: 44%

## AAATTGGTTTCGAATC (sugars k3 d10 k3, PS)
1 µM
  target mRNA inhibition: 32%

## AAATTTGCTGGAACTG (sugars k3 d10 k3, PS)
1 µM
  target mRNA inhibition: 15%

## AAATTTGTGAACCTGC (sugars k3 d10 k3, PS)
1 µM
  target mRNA inhibition: 26%

## AACAATCAGGAGTTGC (sugars k3 d10 k3, PS)
1 µM
  target mRNA inhibition: 31%

## AACACTAATCTCAGTA (sugars k3 d10 k3, PS)
1 µM
  target mRNA inhibition: 15%

## AACAGTCTTAAACCTT (sugars k3 d1 m1 d8 k3, PS)
1 µM
  target mRNA inhibition: 75%

## AACATCTCTGGGACCA (sugars k3 d9 k3 e1, PS)
1 µM
  target mRNA inhibition: 61%

## AACCTATGTGTGCACC (sugars k3 d10 k3, PS)
1 µM
  target mRNA inhibition: 73%

## AACCTTTGTTGCCTGG (sugars k3 d10 k3, PS)
1 µM
  target mRNA inhibition: 36%

## AACGACTCCAAGTAGG (sugars k3 d10 k3, PS)
1 µM
  target mRNA inhibition: 27%

## AACTACAAGAGGTTAT (sugars k3 d10 k3, PS)
1 µM
  target mRNA inhibition: 57%

## AACTACATGACCTGGG (sugars k3 d10 k3, PS)
1 µM
  target mRNA inhibition: 27%

## AACTAGTGGTAATGGT (sugars k3 d10 k3, PS)
1 µM
  target mRNA inhibition: 32%

## AACTCTAAATACCCTT (sugars k3 d10 k3, PS)
1 µM
  target mRNA inhibition: 28%

## AACTCTATTGATTGGC (sugars k3 d10 k3, PS)
1 µM
  target mRNA inhibition: 72%

## AACTGAAGGTCTGAGC (sugars k3 d10 k3, PS)
1 µM
  target mRNA inhibition: 55%

## AACTTCACCAACGACT (sugars k3 d10 k3, PS)
1 µM
  target mRNA inhibition: 0%

## AACTTCATAGTGGACT (sugars kkdddddddddkekek, PS)
1 µM
  target mRNA inhibition: 68%

## AAGAAATTTGTGAACC (sugars k3 d10 k3, PS)
1 µM
  target mRNA inhibition: 21%

## AAGACATTCTAGCCTG (sugars k3 d9 k3 e1, PS)
1 µM
  target mRNA inhibition: 40%

## AAGATACCCAGGTTGC (sugars k3 d9 k3 e1, PS)
1 µM
  target mRNA inhibition: 69%

## AAGATACCCAGGTTGC (sugars kkdddddddddkekek, PS)
1 µM
  target mRNA inhibition: 59%

## AAGATTAGTCTTGATG (sugars k3 d10 k3, PS)
1 µM
  target mRNA inhibition: 25%

## AAGCTTTGCAGCATTG (sugars k3 d10 k3, PS)
1 µM
  target mRNA inhibition: 59%

## AAGGAGTAGTGGAGCC (sugars k3 d10 k3, PS)
1 µM
  target mRNA inhibition: 38%

## AAGGTTAGATTTCATC (sugars k3 d10 k3, PS)
0.02 µM
  target mRNA inhibition: 1%
0.078 µM
  target mRNA inhibition: 14%
0.313 µM
  target mRNA inhibition: 60%
1 µM
  target mRNA inhibition: 80%
1.25 µM
  target mRNA inhibition: 64%
5 µM
  target mRNA inhibition: 78%

## AAGTAGATGGTAAGTC (sugars k3 d10 k3, PS)
0.02 µM
  target mRNA inhibition: 7%
0.078 µM
  target mRNA inhibition: 42%
0.313 µM
  target mRNA inhibition: 67%
1 µM
  target mRNA inhibition: 85%
1.25 µM
  target mRNA inhibition: 89%
5 µM
  target mRNA inhibition: 95%

## AAGTTACCAGAGCATT (sugars k3 d10 k3, PS)
0.02 µM
  target mRNA inhibition: 0%
0.078 µM
  target mRNA inhibition: 5%
0.313 µM
  target mRNA inhibition: 45%
1 µM
  target mRNA inhibition: 70%
1.25 µM
  target mRNA inhibition: 80%
5 µM
  target mRNA inhibition: 90%

## AAGTTAGCCCCCAGGA (sugars k3 d9 k3 e1, PS)
1 µM
  target mRNA inhibition: 23%

## AAGTTTGTTAGAGTGC (sugars k3 d10 k3, PS)
1 µM
  target mRNA inhibition: 74%

## AAGTTTTGGGACCAAT (sugars k3 d10 k3, PS)
1 µM
  target mRNA inhibition: 11%

## AATAATAGCTCTATTG (sugars k3 d9 k3 e1, PS)
1 µM
  target mRNA inhibition: 3%

## AATACAGGATAGAGCA (sugars k3 d10 k3, PS)
1 µM
  target mRNA inhibition: 0%

## AATACGACTTCCTTCT (sugars k3 d10 k3, PS)
1 µM
  target mRNA inhibition: 26%

## AATACTCCCCAATTGC (sugars k3 d10 k3, PS)
1 µM
  target mRNA inhibition: 0%

## AATAGAGTCGGTCACC (sugars k3 d9 k3 e1, PS)
1 µM
  target mRNA inhibition: 58%

## AATAGAGTTGCACCGT (sugars k3 d10 k3, PS)
1 µM
  target mRNA inhibition: 48%

## AATAGCCAGTACAGTT (sugars k3 d1 m1 d8 k3, PS)
1 µM
  target mRNA inhibition: 66%

## AATAGTCTTCAGCAAA (sugars k3 d10 k3, PS)
1 µM
  target mRNA inhibition: 48%

## AATATGTCCAGGTTGA (sugars k3 d10 k3, PS)
1 µM
  target mRNA inhibition: 64%

## AATATTGAGGCACTGG (sugars k3 d9 k3 e1, PS)
1 µM
  target mRNA inhibition: 36%

## AATCCCAACCAAACTT (sugars kkdddddddddkekek, PS)
1 µM
  target mRNA inhibition: 17%

## AATGAATCATGATTGA (sugars k3 d10 k3, PS)
1 µM
  target mRNA inhibition: 33%

## AATGAGGCGGCACTCA (sugars k3 d10 k3, PS)
1 µM
  target mRNA inhibition: 20%

## AATGCTACTTGAACAG (sugars k3 d1 m1 d8 k3, PS)
1 µM
  target mRNA inhibition: 34%

## AATGCTACTTGAACAG (sugars k3 d10 k3, PS)
1 µM
  target mRNA inhibition: 54%

## AATGTAAGAAGCCACG (sugars k3 d10 k3, PS)
1 µM
  target mRNA inhibition: 26%

## AATTATTTCTTGCGAG (sugars k3 d10 k3, PS)
1 µM
  target mRNA inhibition: 16%

## AATTCACCTTGACTAA (sugars k3 d1 m1 d8 k3, PS)
1 µM
  target mRNA inhibition: 0%

## AATTCACCTTGACTAA (sugars kkdddddddddkekek, PS)
1 µM
  target mRNA inhibition: 9%

## AATTCTATAGCTAAGT (sugars k3 d10 k3, PS)
1 µM
  target mRNA inhibition: 9%

## AATTGTCTAAACATCT (sugars k3 d10 k3, PS)
1 µM
  target mRNA inhibition: 62%

## AATTTATTTGCTGGTC (sugars k3 d10 k3, PS)
1 µM
  target mRNA inhibition: 27%

## AATTTCATACAGTTCG (sugars k3 d10 k3, PS)
1 µM
  target mRNA inhibition: 66%

## ACAACCCTTAACAAAC (sugars k3 d10 k3, PS)
1 µM
  target mRNA inhibition: 26%

## ACAAGAGGATAGTCCA (sugars k3 d10 k3, PS)
1 µM
  target mRNA inhibition: 64%

## ACAATATGGGATGAGG (sugars k3 d10 k3, PS)
0.02 µM
  target mRNA inhibition: 29%
0.078 µM
  target mRNA inhibition: 7%
0.313 µM
  target mRNA inhibition: 43%
1 µM
  target mRNA inhibition: 71%
1.25 µM
  target mRNA inhibition: 65%
5 µM
  target mRNA inhibition: 85%

## ACAATCAGGAGTTGCA (sugars k3 d10 k3, PS)
1 µM
  target mRNA inhibition: 62%

## ACACTAATATTGAGGC (sugars k3 d9 k3 e1, PS)
1 µM
  target mRNA inhibition: 68%

## ACACTAATATTGAGGC (sugars k3 d10 k3, PS)
0.02 µM
  target mRNA inhibition: 28%
0.078 µM
  target mRNA inhibition: 32%
0.313 µM
  target mRNA inhibition: 37%
1 µM
  target mRNA inhibition: 68%
1.25 µM
  target mRNA inhibition: 58%
5 µM
  target mRNA inhibition: 85%

## ACACTAATCTCAGTAC (sugars k3 d10 k3, PS)
1 µM
  target mRNA inhibition: 6%

## ACAGAACCAATATGCT (sugars k3 d10 k3, PS)
1 µM
  target mRNA inhibition: 40%

## ACAGACTAAGGGACCA (sugars k3 d10 k3, PS)
1 µM
  target mRNA inhibition: 68%

## ACAGAGAATTGTTTAG (sugars k3 d10 k3, PS)
1 µM
  target mRNA inhibition: 39%

## ACAGAGTTATTGTAGG (sugars k3 d10 k3, PS)
1 µM
  target mRNA inhibition: 58%

## ACAGGTAATTAATCTT (sugars k3 d10 k3, PS)
1 µM
  target mRNA inhibition: 39%

## ACAGTTCCTTTTCCTG (sugars k3 d10 k3, PS)
1 µM
  target mRNA inhibition: 58%

## ACAGTTGAGTAGTGTA (sugars k3 d10 k3, PS)
1 µM
  target mRNA inhibition: 72%

## ACAGTTTAGATTGCAT (sugars k3 d10 k3, PS)
0.02 µM
  target mRNA inhibition: 12%
0.078 µM
  target mRNA inhibition: 0%
0.313 µM
  target mRNA inhibition: 73%
1 µM
  target mRNA inhibition: 84%
1.25 µM
  target mRNA inhibition: 73%
5 µM
  target mRNA inhibition: 97%

## ACATAACTTCATAGTG (sugars k3 d10 k3, PS)
1 µM
  target mRNA inhibition: 27%

## ACATACGCATGCGCAG (sugars k3 d10 k3, PS)
1 µM
  target mRNA inhibition: 20%

## ACATAGACATGTGTTC (sugars k3 d10 k3, PS)
1 µM
  target mRNA inhibition: 35%

## ACATATGTGAAGAGCT (sugars k3 d10 k3, PS)
1 µM
  target mRNA inhibition: 66%

## ACATCCAAGTAATTAC (sugars k3 d10 k3, PS)
1 µM
  target mRNA inhibition: 56%

## ACATTAGCAAGCTAAG (sugars k3 d10 k3, PS)
1 µM
  target mRNA inhibition: 52%

## ACATTGCAGTTATTAG (sugars k3 d9 k3 e1, PS)
1 µM
  target mRNA inhibition: 52%

## ACATTGCAGTTATTAG (sugars kkdddddddddkekek, PS)
1 µM
  target mRNA inhibition: 46%

## ACCAAACTTCCAGCAG (sugars kkdddddddddkekek, PS)
1 µM
  target mRNA inhibition: 32%

## ACCAACGACTCCAAGT (sugars k3 d10 k3, PS)
1 µM
  target mRNA inhibition: 16%

## ACCAATATGCTCTGTC (sugars k3 d10 k3, PS)
0.02 µM
  target mRNA inhibition: 19%
0.078 µM
  target mRNA inhibition: 5%
0.313 µM
  target mRNA inhibition: 41%
1 µM
  target mRNA inhibition: 67%
1.25 µM
  target mRNA inhibition: 78%
5 µM
  target mRNA inhibition: 97%
